76 compounds from US20090137577A1, “HETEROCYCLIC COMPOUNDS” (Pfizer Inc., priority 2007, published 2009) can be followed below.

Molecules are shown by their SMILES. pEC50: −log10 of the molar value.

In this assay the target is T1, mGluR2 receptor (metabotropic glutamate receptor 2) (Homo sapiens, UniProt Q14416).
T1 construct: expressed in transfected cells
T1 sequence (Q14416 19-872, species assumed): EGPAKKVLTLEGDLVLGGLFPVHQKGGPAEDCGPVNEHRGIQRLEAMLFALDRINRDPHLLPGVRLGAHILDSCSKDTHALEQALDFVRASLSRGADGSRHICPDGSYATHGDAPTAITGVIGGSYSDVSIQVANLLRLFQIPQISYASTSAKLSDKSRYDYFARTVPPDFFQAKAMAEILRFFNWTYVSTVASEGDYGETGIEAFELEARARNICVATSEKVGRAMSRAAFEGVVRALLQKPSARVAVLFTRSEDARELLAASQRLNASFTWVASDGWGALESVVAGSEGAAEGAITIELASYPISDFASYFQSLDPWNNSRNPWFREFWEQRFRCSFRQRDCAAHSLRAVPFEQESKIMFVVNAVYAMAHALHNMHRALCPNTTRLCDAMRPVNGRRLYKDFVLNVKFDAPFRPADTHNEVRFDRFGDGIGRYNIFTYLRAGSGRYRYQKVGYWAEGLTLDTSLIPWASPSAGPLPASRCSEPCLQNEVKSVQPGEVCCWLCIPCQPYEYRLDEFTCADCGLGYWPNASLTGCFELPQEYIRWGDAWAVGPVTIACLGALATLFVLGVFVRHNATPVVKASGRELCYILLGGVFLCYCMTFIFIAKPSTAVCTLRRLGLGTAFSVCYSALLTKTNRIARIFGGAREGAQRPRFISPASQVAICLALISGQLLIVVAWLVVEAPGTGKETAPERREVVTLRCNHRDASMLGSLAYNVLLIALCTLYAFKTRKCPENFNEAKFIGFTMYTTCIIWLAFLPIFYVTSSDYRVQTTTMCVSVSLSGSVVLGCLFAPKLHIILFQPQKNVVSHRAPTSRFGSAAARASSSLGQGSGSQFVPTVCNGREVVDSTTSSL
Put plainly: mGluR2 potentiator screen (FLIPR, EC10-EC20 glutamate challenge).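 Also: HEK cells stably expressing human mGluR2 with GL15 G protein, Fluo-4 calcium fluorescence read on FLIPR, compounds added before an EC10-EC20 glutamate challenge to detect potentiation.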 In kind it is cell-based. The note with it: geometric mean; read-out: mGluR 2 EC50 (geometric mean).
The term pEC50 denotes the EC50 on a negative log10 scale, so that one unit is a factor of ten. On to `CC(C)COc1ccc(CN2CC(C)(C)COC2=O)cc1` [Example 16], for which the pEC50 was 6.18.

On to `COc1ccc(-c2ccc(CN3C[C@@H](C)OC3=O)cc2)cc1OC` [Example 190], for which the pEC50 is 6.17.

For `C[C@@H]1CN(Cc2ccc(-c3ccc(C(F)(F)F)cc3C(F)(F)F)cc2)C(=O)O1` [Example 275], the negative logarithm of the EC50 (pEC50) is 7.32.

Regarding `COc1ccc(-c2ccc(CN3C[C@@H](C)OC3=O)cc2)c(F)c1F` [Example 242], the pEC50 was greater than 7.76.

As for `CC(Oc1ccc(CN2C(=O)OC[C@@H]3CCCC[C@@H]32)cc1)C1CCCCC1` (stereo partly shown) [Example 37], the pEC50 is 5.69.

With `COc1ccc(Cl)cc1-c1ccc(CN2C[C@@H](C)OC2=O)cn1` [Example 266], the pEC50 is 6.25.

Consider `C[C@@H]1CN(Cc2ccc(-c3ccc(F)cc3F)cc2F)C(=O)O1` [Example 249, (5R)-5-methyl-3-[(2′,3,4′-trifluorobiphenyl-4-yl)methyl]-1,3-oxazolidin-2-one], for which the negative logarithm of the EC50 (pEC50) was greater than 7.55.

For `O=C1OCCN1Cc1ccc(OCCC2CCCCC2)cc1` [Example 11], the pEC50 was 6.16.

With `C[C@@H]1CN(Cc2ccc(-c3ccc(OC(F)F)cc3)nc2)C(=O)O1` [Example 313], the pEC50 was 6.27.

As to `C[C@@H]1CN(Cc2ccc(OCCCOc3ccc(F)cc3)nc2)C(=O)O1` [Example 229, (5R)-3-({6-[3-(4-fluorophenoxy)propoxy]pyridin-3-yl}methyl)-5-methyl-1,3-oxazolidin-2-one], the negative-log EC50 (pEC50) is 6.12.

`CCOc1ccc(COc2ccc(CN3CC(C)OC3=O)cc2)cc1` (stereo not shown) [Example 119]: the negative logarithm of the EC50 (pEC50) was 6.79.

Consider `COc1ccc(F)c(-c2ccc(CN3C[C@@H](C)OC3=O)cn2)c1` [Example 260], for which the negative logarithm of the EC50 (pEC50) was 6.07.

Turning to `Cc1cc(C)n(-c2cccc(-c3ccc(CN4C[C@@H](C)OC4=O)cc3)c2)n1` [Example 199], the negative logarithm of the EC50 (pEC50) is 6.09.

Regarding `Cc1ccccc1COc1ccc(CN2C[C@@H](C)OC2=O)cc1` [Example 186], the pEC50 was 7.05.

For `Cc1ccc(CN2CCN(Cc3ccc(OC(C)C4CCCCC4)cc3)C(=O)C2)cc1` (stereo not shown) [Example 216], the pEC50 is 6.33.

Consider `Cc1cc(CN2C[C@@H](C)OC2=O)ccc1OCc1ccc(C(F)(F)F)cc1` [Example 284, (5R)-5-Methyl-3-(3-methyl-4-{[4-(trifluoromethyl)benzyl]oxy}benzyl)-1,3-oxazolidin-2-one], for which the negative-log EC50 (pEC50) is 6.51.

As to `C[C@@H]1CN(Cc2ccc(-c3ccc(C(F)(F)F)cc3F)cc2)C(=O)O1` [Example 234], the pEC50 is greater than 7.46.

As for `CC(C)Oc1ccc(CN2CC(c3ccccc3)OC2=O)cc1` (stereo not shown) [Example 44], the negative logarithm of the EC50 (pEC50) was 6.24.

In the case of `C[C@@H]1CN(Cc2ccc(-c3ccc(C(F)(F)F)cc3)cc2)C(=O)O1` [Example 64, (5R)-5-methyl-3-{[4′-(trifluoromethyl)biphenyl-4-yl]methyl}-1,3-oxazolidin-2-one], the pEC50 was 7.21.

As to `C[C@@H]1CN(Cc2ccc(-c3cccc(Cl)c3F)c(F)c2)C(=O)O1` [Example 291, (5R)-3-[(3′-chloro-2,2′-difluorobiphenyl-4-yl)methyl]-5-methyl-1,3-oxazolidin-2-one], the pEC50 is 7.22.

With `CC1CN(Cc2ccc(OCC3CCCC3)cc2)C(=O)O1` (stereo not shown) [Example 90], the pEC50 was 7.59.

For the compound `C[C@@H]1CN(Cc2ccc(-c3nc(C(C)(C)C)cs3)cc2)C(=O)O1` [Example 183], the negative logarithm of the EC50 (pEC50) is 6.82.

Turning to `C[C@H]1[C@@H](c2ccccc2)OC(=O)N1Cc1ccc(OCC2CCC2)cc1` [Example 24], the pEC50 was 6.18.

Regarding `CC(=O)c1ccccc1-c1ccc(CN2C[C@@H](C)OC2=O)cc1` [Example 175], the pEC50 is 6.09.

As for `CC1CN(Cc2ccc(OCCCc3ccncc3)cc2)C(=O)O1` (stereo not shown) [Example 116], the negative-log EC50 (pEC50) was 6.03.

`COc1ccc(F)c(-c2ccc(CN3C[C@@H](C)OC3=O)cc2)c1` [Example 240]: the negative-log EC50 (pEC50) is 6.92.

For `CC(Oc1ccc(CN2CC(c3ccncc3)OC2=O)cc1)C1CCCCC1` (stereo not shown) [Example 209], the pEC50 is 6.19.

Take `CC(Oc1ccc(CN2CC(c3ccccn3)OC2=O)cc1)C1CCCCC1` (stereo not shown) [Example 207]: the pEC50 was 7.20.

Regarding `CC1CN(Cc2ccc(OCC3CCC3)cc2)C(=O)O1` (stereo not shown) [Example 14], the negative-log EC50 (pEC50) was 6.75.

For `CC1CN(Cc2ccc(OCc3c(F)cccc3F)cc2)C(=O)O1` (stereo not shown) [Example 106], the pEC50 was 7.13.

With `COc1cccc(OC)c1-c1ccc(CN2C[C@@H](C)OC2=O)cc1` [Example 161], the pEC50 is 6.64.

For `Cc1ccc(C(C)Oc2ccc(CN3CC(C)OC3=O)cc2)cc1` (stereo not shown) [Example 125], the pEC50 is 7.62.

With `O=C1OC(c2ccccc2)CN1Cc1ccc(OCC2CCCCC2)cc1` (stereo not shown) [Example 7], the pEC50 is 6.66.

Take `COc1cc(COc2ccc(CN3CC(C)OC3=O)cc2)ccc1F` (stereo not shown) [Example 127]: the pEC50 is 5.77.

`C[C@@H]1CN(Cc2ccc(-c3ccc(N4CCOCC4)nc3)cc2)C(=O)O1` [Example 154]: the pEC50 is 5.91.

Consider `CCC(CC)CN1CCN(Cc2ccc(OC(C)C3CCCCC3)cc2)C(=O)C1` (stereo not shown) [Example 217], for which the pEC50 was 6.02.

Consider `C[C@@H]1CN(Cc2ccc(COc3ccc(F)cc3F)cc2)C(=O)O1` [Example 305, (5R)-3-{4-[(2,4-Difluorophenoxy)methyl]benzyl}-5-methyl-1,3-oxazolidin-2-one], for which the negative-log EC50 (pEC50) was 6.38.

For the compound `COc1cccc(COc2ccc(CN3CC(C)OC3=O)cc2)c1` (stereo not shown) [Example 103], the pEC50 was 6.66.

As for `CC(Oc1ccc(CN2C(=O)O[C@H](c3ccccc3)[C@@H]2C)cc1)c1ccccc1` (stereo partly shown) [Example 50], the pEC50 is 6.58.

With `CCC[C@H](C)Oc1ccc(CN2CC(C)OC2=O)cc1` (stereo partly shown) [Example 134], the negative logarithm of the EC50 (pEC50) is 6.67.

Regarding `C[C@@H]1CN(Cc2ccc(Oc3ccc(F)cc3)cc2)C(=O)O1` [Example 179], the pEC50 was 6.86.

Turning to `Cc1ccc(F)c(COc2ccc(CN3CC(C)OC3=O)cc2)c1` (stereo not shown) [Example 150], the pEC50 is 7.00.

As to `Cc1ccc(F)cc1COc1ccc(CN2CC(C)OC2=O)cc1` (stereo not shown) [Example 142], the negative logarithm of the EC50 (pEC50) was 7.36.

Consider `COc1ccc(C(C)C)cc1-c1ccc(CN2C[C@@H](C)OC2=O)cn1` [Example 282], for which the negative-log EC50 (pEC50) was 5.83.

For `C[C@@H]1CN(Cc2ccc(-c3cc(C#N)ccc3Cl)cc2)C(=O)O1` [Example 231], the pEC50 was 6.17.

For `CC(C)Oc1ccc(-c2ccc(CN3C[C@@H](C)OC3=O)cc2)cc1F` [Example 277], the negative logarithm of the EC50 (pEC50) is 7.27.

For `C[C@@H]1CN(Cc2ccc(-c3ccc(Cl)c(Cl)c3)cc2)C(=O)O1` [Example 182], the pEC50 was 7.13.

Take `CC1CN(Cc2ccc(OCCC3CC3)cc2)C(=O)O1` (stereo not shown) [Example 93]: the negative logarithm of the EC50 (pEC50) is 6.73.

Consider `CC1CN(Cc2ccc(OC(C)c3ccccc3)cc2)C(=O)O1` (stereo not shown) [Example 46], for which the negative-log EC50 (pEC50) was 6.82.

As for `CC1CN(Cc2ccc(OCc3ccccc3F)cc2)C(=O)O1` (stereo not shown) [Example 112], the negative logarithm of the EC50 (pEC50) is 6.86.

Turning to `CC1(C)COC(=O)N(Cc2ccc(OCC3CCCCC3)cc2)C1` [Example 17], the pEC50 is 6.16.

For the compound `O=C1OC[C@@H]2CCCC[C@@H]2N1Cc1ccc(OCc2ccccc2)cc1` [Example 4], the negative logarithm of the EC50 (pEC50) is 6.19.

`C[C@@H]1CN(Cc2ccc(-c3ccc4c(c3)OCCCO4)cc2)C(=O)O1` [Example 189]: the pEC50 was 7.08.

Consider `CC(=O)c1ccc(-c2ccc(CN3C[C@@H](C)OC3=O)cc2)cc1` [Example 171], for which the negative-log EC50 (pEC50) is 7.22.

As to `CC(C)Oc1ccc(-c2ccc(CN3C[C@@H](C)OC3=O)cc2)c(Cl)c1` [Example 280], the pEC50 was greater than 7.81.

Turning to `Cc1cc(-c2ccc(CN3C[C@@H](C)OC3=O)cc2)ccc1F` [Example 160], the negative-log EC50 (pEC50) was 7.97.

Consider `O=C1OCCCN1Cc1ccc(OCCC2CCCCC2)cc1` [Example 34], for which the pEC50 is 6.55.

For `Cc1onc(-c2ccccc2)c1COc1ccc(CN2CC(C)OC2=O)cc1` (stereo not shown) [Example 132], the negative-log EC50 (pEC50) is 5.78.

As to `C[C@@H]1CN(Cc2ccc(-c3ccc(F)cc3F)c(F)c2)C(=O)O1` [Example 288], the negative logarithm of the EC50 (pEC50) is 7.43.

Take `C[C@@H]1CN(Cc2ccc(/C=C/c3ccccc3)cc2)C(=O)O1` [Example 317, (5R)-5-methyl-3-{4-[(E)-2-phenylvinyl]benzyl}-1,3-oxazolidin-2-one]: the pEC50 was 7.44.

Consider `CC1(C)CN(Cc2ccc(-c3ccc(F)cc3F)cc2)C(=O)O1` [Example 314], for which the negative-log EC50 (pEC50) was 7.74.

As for `CC1CN(Cc2ccc(OC(C)C3CC3)cc2)C(=O)O1` (stereo not shown) [Example 135], the pEC50 is 5.72.

With `COc1cccc(F)c1-c1ccc(CN2C[C@@H](C)OC2=O)cc1` [Example 172], the negative-log EC50 (pEC50) is 7.50.

Consider `CCC(C)CCOc1ccc(CN2C[C@@H](C)OC2=O)cc1` (stereo partly shown) [Example 212], for which the pEC50 was 7.11.

As to `COc1cc(COc2ccc(CN3CC(C)OC3=O)cc2)cc(OC)c1` (stereo not shown) [Example 113], the negative-log EC50 (pEC50) was 6.61.

`CC1CN(Cc2ccc(OCCc3ccc(C#N)cc3)cc2)C(=O)O1` (stereo not shown) [Example 109]: the negative-log EC50 (pEC50) was 6.66.

`CC(C)N1Cc2ccc(-c3ccc(CN4C[C@@H](C)OC4=O)cc3)cc2C1` [Example 174]: the pEC50 was 5.79.

Take `CC1CN(Cc2ccc(OCCc3cccc(F)c3)cc2)C(=O)O1` (stereo not shown) [Example 101]: the pEC50 is 6.73.

For `O=C1OC(c2ccccc2)CN1Cc1ccc(OCCC2CCCCC2)cc1` (stereo not shown) [Example 10], the pEC50 was 6.40.

For the compound `C[C@@H]1CN(Cc2ccc(-c3ccccc3OC(F)(F)F)cc2)C(=O)O1` [Example 164], the pEC50 was greater than 8.14.

Turning to `C[C@@H]1CN(Cc2ccc(-c3ccc(Cl)c(F)c3)cc2)C(=O)O1` [Example 237], the negative logarithm of the EC50 (pEC50) is 6.95.

As for `CC(=O)c1cccc(-c2ccc(CN3C[C@@H](C)OC3=O)cc2)c1` [Example 193], the pEC50 was 6.29.

Turning to `CC(Oc1ccc(CN2CC(c3ccccc3)OC2=O)cc1)C1CCCCC1` (stereo not shown) [Example 38], the pEC50 is 6.90.

As for `CC1CN(Cc2ccc(OCC3(C)CC3)cc2)C(=O)O1` (stereo not shown) [Example 95], the negative logarithm of the EC50 (pEC50) was 6.14.

`C[C@@H]1CN(Cc2ccc(-c3cccc4cccnc34)cc2)C(=O)O1` [Example 173]: the negative-log EC50 (pEC50) was 6.03.

Regarding `CC1CN(Cc2ccc(OCCc3cccc(Cl)c3)cc2)C(=O)O1` (stereo not shown) [Example 99], the negative logarithm of the EC50 (pEC50) was 6.94.
